Type in all cases: cell-based
In one data set the test system is Bacillus subtilis 168 HT. The settings on record: 16 h. The source says: (§1) Peptides were synthesized on an automated Liberty Blue synthesizer (CEM Corp., Matthews, NC, USA) using solid-phase Fmoc chemistry with microwave-assisted heating. Two types of resin were selected for peptide synthesis to accommodate different molecular weights. Fmoc-Rink amide aminomethyl-polystyrene resin (ABCR GmbH & Co KG, Karlsruhe, Germany) with a loading capacity of 0.78 mmol/g was used for peptides with a molecular weight of up to 3 kDa. For peptides with a molecular weight exceeding 3 kDa, Fmoc-Rink amide PEG MBHA resin (ABCR GmbH & Co KG, Karlsruhe, Germany) with a loading capacity of 0.48 mmol/g was used. The target products were obtained with a purity of over 95% after purification of the peptides by reversed-phase HPLC on an AKTA Pure 25 M1 system (GE Healthcare Life Sciences, Chicago, IL, USA) equipped with a Zorbax SB-C18 column (Agilent Technologies, Santa Clara, CA, USA) and UV detection. All HPLC-spectra and HRMS-spectra are available at the Supplementary Materials (Figures S1–S23). The antimicrobial activity of synthetic peptides was measured using the standard microdilution method in microtiter plates. Peptides were dissolved in water to a concentration of 1 mM. Cultures of Bacillus subtilis 168 HT and Escherichia coli MG1655 were grown in a shaker at 30 °C in MHB medium (BD Difco, Thermo Fisher Scientific Inc., Waltham, MA, USA) for 16 h. The resulting cultures were diluted 1:50 in fresh MHB medium and grown in a shaker at 37 °C until reaching mid-logarithmic phase. The bacterial cultures were then further diluted in MHB to a concentration of 10^6 CFU/mL.
(§2) Peptides were serially twofold diluted in MHB in 96-well plates to final concentrations ranging from 100 to 0.2 µM, with a total volume of 50 µL per well. Subsequently, 50 µL of bacterial suspension (10^6 CFU/mL) was added to each well. Plates were incubated overnight at 37 °C. Each experiment included positive controls (melittin) and negative controls (without peptide). Antimicrobial activity was assessed by measuring the optical density at 600 nm (OD600) using a microplate reader AMR-100.

For another data set, the system named is Escherichia coli MG1655. Particulars: MG1655, 16 h.
Description: as §1, §2

Another data set deals with Expi293F cells. Kind of data set: Cytotoxicity, MTT assay. The settings on record: Figure 7 and text, 24 h, 200 to 0.0975 µM, NA = no activity within tested concentration range. A general note: Tetrazolium dyes change colour on reduction, which living cells bring about.

Ends that are not written are not given here.

Description for Expi293F cells: For the synthesized peptides, we determined the minimum inhibitory concentration (MIC) against B. subtilis (MICBs) and E. coli (MICEc) and measured cytotoxicity (IC90) in Expi293F cells (human embryonic kidney cells) using an MTT assay (Figure 7A–C, Tables S1–S4).
Peptide cytotoxicity was assessed using the MTT assay on Expi293F cells (human embryonic kidney cells) (Thermo Fisher Scientific, Waltham, MA, USA). Viable cells with active metabolism reduce water-soluble MTT (Abcam, Cambridge, UK) to insoluble formazan, while dead cells lose this ability and produce no signal. The absorbance measured at 600 nm is proportional to the number of living cells. Expi293F cells were seeded in 96-well plates at a density of 1 × 10^5 cells/mL. After 24 h, peptides were added to the wells at final concentrations ranging from 200 to 0.0975 µM. […] Cells were incubated with peptides in a CO2 incubator at 37 °C and 5% CO2 for 24 h. […] Peptide cytotoxicity was evaluated by measuring optical density at 600 nm and 690 nm using a microplate reader AMR-100. Normalized absorbance was defined as (OD600–OD690). The percentage of cell viability was calculated using the formula: % Cell viability = (ODtreated/ODtotal) × 100, where ODtreated is the normalized absorbance of treated cells and ODtotal is the normalized absorbance of non-treated (control) cells.

For EKGWRRWIFYCF-NH2 [A2R2P3], the “MIC B. subtilis” value against Bacillus subtilis 168 HT turned out to be 25.0 µM. Moreover, in the data set with Escherichia coli MG1655, the “MIC E. coli” value worked out at 50.0 µM.

In the case of “SLMFKTVKKMDNSVKKRFREGMAIAMQCGPR-NH2 [CR2P9]”, in the data set with Bacillus subtilis 168 HT, the “MIC B. subtilis” value is recorded as 25.0 µM. Also, the “MIC E. coli” value against Escherichia coli MG1655 is given as 3.1 µM.

As for “SLMFITVKKLDNSSRIRIRVGIAIAIQGGPR-NH2 [CR2P2]”, the “MIC B. subtilis” value with Bacillus subtilis 168 HT came to 25.0 µM. Moreover, the “MIC E. coli” value with Escherichia coli MG1655 stood at 25.0 µM.

As for “SLMFKTVKKMDNSAKKRIREGIAIAIQGGPR-NH2 [CR1P5]”, in the data set with Escherichia coli MG1655, the “MIC E. coli” value is on record as 6.2 µM.

For EKGWRRWIFNYF-NH2 [A2R1P5], the “MIC B. subtilis” value in the data set with Bacillus subtilis 168 HT stood at 6.2 µM. Further, in the data set on Escherichia coli MG1655, the “MIC E. coli” value came to 6.2 µM.

For “SLIFKIVKKMDDIGKKRIREGIAIPLQGGPR-NH2 [CR2P7]”, in the data set on Escherichia coli MG1655, the “MIC E. coli” value is listed as 50.0 µM.

Take “SWLSKTAKKLENSAKKRISEGIAIAIQGGPR-NH2 [cecropin, reference compound]”: the “MIC E. coli” value with Escherichia coli MG1655 stood at 0.4 µM. Besides, the “IC90 (cytotoxicity, concentration that inhibits 90% of cell growth)” value in the data set on Expi293F cells was determined as 200 µM.

Turning to “SFVCKTVKKMNNSAKKGFREGIALAIQGGPR-NH2 [CR2P8]”, in the data set with Bacillus subtilis 168 HT, the “MIC B. subtilis” value turned out to be 25.0 µM. For the same substance, in the data set with Escherichia coli MG1655, the “MIC E. coli” value was 6.2 µM.

Regarding EIGWRRRICNYL-NH2 [A2R2P7], the “MIC B. subtilis” value against Bacillus subtilis 168 HT was found to be 6.2 µM. For the same substance, the “MIC E. coli” value against Escherichia coli MG1655 is listed as 25.0 µM.

EKGWRRWIFFSF-NH2 [A2R3P6]: in the data set with Bacillus subtilis 168 HT, the “MIC B. subtilis” value was 12.5 µM. Also, in the data set on Escherichia coli MG1655, the “MIC E. coli” value is given as 12.5 µM.

As to “EKRWRRLIFNYF-NH2 [Hm-AMP2, reference compound]”, the “MIC B. subtilis” value with Bacillus subtilis 168 HT turned out to be 12.5 µM. For the same substance, the “MIC E. coli” value against Escherichia coli MG1655 worked out at 3.1 µM.

For the substance EKGWLRRIFYCF-NH2 [A2R3P8], the “MIC B. subtilis” value against Bacillus subtilis 168 HT came to 6.2 µM. Further, the “MIC E. coli” value with Escherichia coli MG1655 came to 25.0 µM.

EKGRRRWIFYFF-NH2 [A2R3P7]: in the data set with Bacillus subtilis 168 HT, the “MIC B. subtilis” value was 25.0 µM. For the same substance, the “MIC E. coli” value with Escherichia coli MG1655 came to 12.5 µM.

In the case of EKDWPRRILYCF-NH2 [A2R3P10], the “MIC B. subtilis” value in the data set on Bacillus subtilis 168 HT worked out at 50.0 µM.

Source of the values: publication PMC12649535, “Development of New Antimicrobial Peptides by Directional Selection” (Antibiotics, 2025).
